Measured values taken from paper PMC5913254, “A novel in vitro metric predicts in vivo efficacy of inhaled silver-based antimicrobials in a murine Pseudomonas aeruginosa pneumonia model” (Scientific Reports, 2018).
Several values for one entry are separate records, joined by “and”; a condition that tells them apart may be missing. Identical values can stand only once.

Columns and labels:
[1] = test system: primary human dermal fibroblasts (HDFs); experiment: alamarBlue cytotoxicity assay against HDFs (in vitro LD50); format: cell-based; details: 24 h
Description: (§1) 16HBEs (16HBE14o-), generously provided by Dr. D. Gruenert (University of California, San Francisco, CA) are a human bronchial epithelial cell line transformed with SV40 large T-antigen using the replication-defective pSVori plasmid. 16HBEs were used as a model to determine the relative toxicities of the SCCs to airway cells. Cells between passages 20 to 35 were cultured in Minimum Essential Medium with Earle’s Balanced Salts (Sigma Aldrich) and non-essential amino acids supplemented with penicillin-streptomycin (1%), L-glutamine (1%), and foetal bovine serum (10%). Additionally, primary human dermal fibroblasts (HDFs) were also utilized for in vitro toxicity studies. HDFs at passage 4 were generously donated by Carol Tamminga, M.D. (University of Texas Southwestern Medical Center, Dallas, TX). HDFs were cultured in Dulbecco’s Modified Eagle Medium (Sigma Aldrich) supplemented with penicillin-streptomycin (1%), L-glutamine (1%), and foetal bovine serum (10%) and were utilized between passage 7 to 14 for in vitro toxicity studies. 16HBE and HDF cultures were assessed for bacterial contamination visually, while mycoplasma contamination was assessed both visually and through a PCR-based Universal Mycoplasma Detection Kit assay (ATCC® 30-1012K^TM).
(§2) 16HBEs and HDFs grown to confluency (90–95%) as described above were sub-cultured, re-suspended in the appropriate medium, and seeded in wells of clear 96-well plate(s) at either 25,000 cells/well (16HBEs) or 15,000 cells/well (HDFs) with 100 µL of feeding media and incubated over 24 hours at 37 °C, 5% CO2, and 100% RH. The cells were then washed once with sterile phosphate buffered saline (PBS, pH = 7.4) and 100 µL of SCCs or the Ag-PPE-SCKs at various concentrations in OPTI-MEM® (Invitrogen) with 3.3% (v/v) DMSO, or without for the Ag-PPE-SCKs, was added to the cells. Next, 10 µL of alamarBlue® (Invitrogen) was added to each well and the plates were re-incubated for 24 h. Finally, the plates were measured for optical density at 570 and 600 nm with a spectrophotometer (POLARstar Omega, BMG Labtech or Cytation 5, BioTek). Untreated cells and media only (with alamarBlue®) were used as controls. […] The relative viabilities of the cells were determined as per the manufacturer’s instructions and using GraphPad Prism® software to generate a non-linear curve fit and interpolate the in vitro LD50 for each SCC. This assay was performed with three technical replicates for each SCC and Ag-PPE-SCK dose and biological replicates were performed in quadruplicate on separate days (3 technical replicates × 4 biological replicates = 12 total replicates). The DEM for each SCC was determined as the ratio of the molar LD50 and MBC concentrations (LD50/MBC).

[2] = test system: primary tracheal epithelial cells grown at air-liquid interface; set-up: method as in PMID 20005242; details: higher than 16HBE; cited from earlier work
[3] = test system: Pseudomonas aeruginosa (PA M57-15); experiment: Histology of lungs of infected, treated mice; format: in vivo, mouse; details: lungs at 25 hours after three treatments; for aggregate histological score: inflammation, consolidation, congestion/haemorrhage each 0 to +3, sham +6
Description: Male C57BL/6 J mice were infected with PA M57-15 and treated with the four SCCs or vehicle as described above. At 25 hours, following three treatments, the mice were humanely euthanized by cervical dislocation following anesthetization by a ketamine/xylazine cocktail. Lungs of the mice were harvested aseptically, the lung sections fixed in 10% formalin for a minimum of 12 hours, and embedded in paraffin using an automated rapid tissue processor (Peloris-Leica Microsystems Inc., Buffalo Grove, IL). Two 5-micron thick sections were obtained from each paraffin block and stained with Haematoxylin/Eosin on an automated stainer (Symphony, Ventana-Roche, Tucson, AZ). Sections were evaluated by light microscopy (Nikon Eclipse-Ni, Nikon Instruments, Inc., Americas), scored using a semi-quantitative scale from 0 (negative), +1 (mild), +2 (moderate), and +3 (severe) for the following parameters: inflammation, consolidation, congestion/haemorrhage, and an aggregate score was calculated for each group. The presence of bacterial colonies if any was also noted. A pathologist, who was blinded to the treatment received by the mice, performed the examination and analysis of tissues. A total of two mice were used in each treatment group.

[4] = test system: 16HBE cells vs. PA M57-15; experiment: Drug efficacy metric (DEM = LD50/MBC) using 16HBEs; set-up: species or system human; details: 16HBE-based DEM; one-way ANOVA with Tukey's test or unpaired t-test
Description: as §2, with “This assay was performed with three technical replicates for each SCC and Ag-PPE-SCK dose and biological replicates were performed in quadruplicate on separate days (3 technical replicates × 4 biological replicates = 12 total replicates).” left out

[5] = test system: P. aeruginosa strain PA M57-15; experiment: MIC and MBC determination, standard CLSI protocol with minor modifications; format: cell-based, Pseudomonas aeruginosa
Description: Pseudomonas aeruginosa isolate PA M57-15 was generously donated by Thomas Ferkol, M.D. (Washington University, St. Louis, MO). PA M57-15 was struck from frozen glycerol stocks on to tryptic soy agar plates (Remel) and incubated overnight at 37 °C in a warm room until individual colonies formed. A single colony was inoculated in 10 mL Mueller-Hinton (MH) broth, grown in a shaking incubator (37 °C, 200 rpm) to log phase (OD650 = 0.4), and utilized for experiments after appropriate dilutions. PA M57-15 bacterial suspension at OD650 = 0.4 corresponds to 2–3 × 10^8 CFU/mL, as verified by repeated serial dilution and plating.
The MIC and MBC determinations of the various SCCs and the Ag-PPE-SCK NPs were performed using a standard CLSI protocol with minor modifications. A mucoid clinical isolate of Pseudomonas aeruginosa, PA M57-15, from a cystic fibrosis patient was utilized, because we have previously studied this strain in murine models of P. aeruginosa lung infection[21],[29],[30]. PA M57-15 grown to log phase as previously described was diluted to a density of 10^6 CFU/mL in MH and added 1:1 in a 96-well plate with different concentrations of SCCs dissolved in 95:5 (v:v) DH2O:DMSO solution or the Ag-PPE-SCKs suspended in DH2O. The final SCC concentrations tested were 0.25, 0.5, 0.75, 1, 1.5, and 2 μg/mL and were increased in two-fold increments from 2 μg/mL to 32 μg/mL. The final DMSO concentrations in the wells was 2.5% (v/v) and had no impact on bacterial growth, as determined by growth in the positive control wells. […] Contents of these clear wells were streaked on agar plates and incubated for an additional 24 hours at 37 °C. […] Three technical replicates were employed for each experiment and a total of three biological replicates were performed on separate days (3 technical replicates x 3 biological replicates = 9 total replicates) to account for day-to-day variations in media, bacterial growth, compound dilutions, as well as other experimental conditions. The MIC and MBC values that were identical for at least two readings out of the three are reported.

[6] = test system: Pseudomonas aeruginosa (PA M57-15); experiment: Murine P. aeruginosa acute lung infection model, nebulized treatment; format: in vivo, mouse; details: for survival: 25 µmol Ag+ per dose nebulized, 5 doses, sham 9.1%; for survival / survival compared with sham treatment: 90:10 DH2O:DMSO, head-to-head of four SCCs; for clinical illness score (signs of illness): 25 µmol per dose nebulized with DMSO, SCC1 and SCC22: at 24 hours following infection, scorers not blinded; for survival compared with sham treatment: 25 µmol per dose nebulized
Description: Weight-matched male C57BL/6 J mice aged 6–8 weeks were used for all acute lung infection studies, which were approved by the University of Texas Southwestern Medical Center Institutional Animal Care and Use Committee (IACUC). All experiments were performed in accordance with relevant guidelines and regulations. Animals were housed in a barrier facility under pathogen-free conditions until they were inoculated with bacteria. The previously described clinical mucoid strain of Pseudomonas aeruginosa (PA M57-15) grown to mid-log phase (OD650 = 0.4) in Luria broth (LB) was used for all pulmonary infection experiments. The density of the bacterial culture (CFU/mL) was determined using serial dilution and plating for each experiment.
Mice were anesthetized by intraperitoneal administration of a ketamine (60 mg/kg) and xylazine (8 mg/kg) cocktail, intranasally inoculated using 75 µL of the bacterial inoculum (~1 × 10^6 CFU per mouse), and assigned randomly into treatment groups. Treatment was administered at 1-hour post-inoculation and again every 12 hours thereafter up to a 5th dose at 49 hours via nebulization of 5 mL of SCC solutions (containing 25 µmol total Ag^+ cation per dose for each SCC) or sham treatment. For the head-to-head comparison of unencapsulated SCC1, SCC22, SCC23, and SCC28, all SCCs were dissolved in a 90:10 (v/v) mixture of DH2O and DMSO; whereas, the sham treatment consisted of 90:10 DH2O: DMSO, but with dilute phosphate buffer (1 mM Na2HPO4, 0.2 mM KH2PO4) incorporated to provide tonicity for nebulization. For the dose-response studies with unencapsulated SCC1 and SCC22, 5 mL of SCCs dissolved in DH2O alone or 90:10 (v/v) mixture of DH2O and DMSO was nebulized to provide a total dose of 25, 50, or 100 µmol Ag^+ cation per dose for each SCC. Nebulization of the SCCs was achieved using a previously described experimental setup comprising of an Aeroneb Lab apparatus connected to a multi-dosing chamber. Throughout each study, the mice were monitored constantly and times of death were recorded. Every 24 hours, the mice were weighed and assigned cumulative clinical illness scores (0–6) based on their resting posture (0–2), condition of their fur (0–1), and overall activity level (0–3), with higher scores indicating more severe illness. The investigators assigning the scores were not blinded to the treatment group, which is a limitation of this study. The survival studies were all performed in duplicate with results pooled.
In vivo efficacy testing of the silver loaded, polyphosphoester, shell-crosslinked, knedel-like nanoparticles (Ag-PPE-SCKs) was carried out in a similar manner as with the SCCs. Ag-PPE-SCKs were suspended in 5 mL DH2O to a concentration of ~5 mM silver, as previously determined by mass spectrometry, and empty PPE-SCKs were suspended corresponding to the same mass of polymer. SCC1, a comparator treatment, was similarly dissolved to 5 mM in 5 mL DH2O, and sham consisted of the DH2O:phosphate buffer solution used in the other studies. The infection model was carried out as before; however, the Ag-PPE-SCKs and PPE-SCKs were dosed at 1 and 25 hours post-infection with the nanoparticles and given sham treatment at 13, 37, and 49 hours. SCC1 and sham treatment groups were dosed at all five time points. Survival studies were performed twice and pooled, though SCC1 was only used in one of the survival studies.

[7] = set-up: method as in PMID 23930200; details: radiolabelled Ag+; cited from earlier work
[8] = test system: immortalized human bronchial epithelial cells (16HBE); experiment: alamarBlue cytotoxicity assay against 16HBE cells (in vitro LD50); format: cell-based; details: 24 h
Description: as §1, §2

[9] = set-up: method as in PMID 20449175; details: cited from earlier work
[10] = 100 µmol, DMSO-free formulation

Structure (SMILES) | LD50 [1] [µM] | bacterial colonies in lung tissue [3] | aggregate histological score [3] | DEM compared between formulations [4] | MBC ([5]; PA M57-15) [µg/mL] | MIC ([5]; PA M57-15) [µg/mL] | MBC ([5]; PA M57-15, molar basis) | MIC ([5]; PA M57-15, molar basis) | survival [6] [%] | clinical illness score (signs of illness) [6] | survival advantage compared with sham treatment ([6]; 25 µmol, DMSO-free formulation) [%] | survival advantage compared with sham treatment ([6]; 25 µmol, with DMSO) [%] | survival advantage compared with sham treatment ([6]; 50 µmol, DMSO-free formulation) [%] | survival advantage compared with sham treatment [6, 10] [%] | survival advantage compared with sham treatment ([6]; 100 µmol, with DMSO) | LD50 [8] [µM] | survival compared with sham treatment [6] | further results
CC(=O)[O][Ag][c]1n(C)c2c(c(=O)n(C)c(=O)n2C)[n+]1C [SCC1] | 25.8 | complete absence of bacterial colonies | +4 | significantly higher DEMs than SCC23 and SCC28 | 1.5 | 0.75 | 4.0 µM and 4 µM | 2.0 µM and 2 µM | 25 | significantly lower signs of illness | 58 | 42 | 64 | 73 | 17% | 297 |  | LD50 of primary cells relative to that of 16HBE [2]: about 2 log10; survival advantage compared with sham treatment ([6]; ~5 mM silver in 5 mL DH2O nebulized, Ag-PPE-SCKs dosed at 1 and 25 h, SCC1 at all five time points): 50%; accumulation in the liver [7]: minimal accumulation
CC(=O)[O][Ag][c]1n(CCCO)c(Cl)c(Cl)[n+]1C [SCC22] | 22.7 | No bacterial colonies were identified | +3 | significantly higher DEMs than SCC23 and SCC28 | 1.0 | 0.75 | 2.7 µM | 2.0 µM and 2 µM | 42 | significantly lower signs of illness | 25 | 58 | 67 | 67 | did not yield any survival advantage | 224 |  | water solubility [9]: up to 110 g/L; survival advantage compared with sham treatment ([6]; 50 µmol, with DMSO): 50%
CC(=O)[O][Ag][c]1n(Cc2ccc3ccccc3c2)c(Cl)c(Cl)[n+]1Cc1ccc2ccccc2c1 [SCC23] | 14.2 | bacterial colonies were not identified | +4 |  | 1.0 | 0.50 | 1.7 µM | 0.86 µM |  | appeared the most infirm at each time-point |  |  |  |  |  | 14.7 | significantly lower survival | 
CCCCCCn1c(Cl)c(Cl)[n+](Cc2ccc3ccccc3c2)[c]1[Ag][O]C(C)=O [SCC28] | 9.8 | bacterial colonies were not identified | 4 |  | 1.0 | 0.50 | 1.9 µM | 0.95 µM |  |  |  |  |  |  |  | 58.1 | significantly lower survival | 
